Measurements as given in ChEMBL document CHEMBL1201862, “PubChem BioAssay data set” (2004).
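Five compound concentrations were applied to cells in 96-well plates for 48 hours; endpoints were derived by simple linear interpolation of the resulting dose-response curve. GI50 is the concentration that inhibits growth by half.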 Activity calls are given as the source filed them. Cut-off read from the data, not from the text of the source: active = GI50 up to about 1.1 µM and inactive = higher.

Tests used:
Experiment in all cases: inhibition of tumour cell growth, NCI panel, 48 h
OVCAR-5 = system: OVCAR-5
OVCAR-3 = system: OVCAR-3
SNB-19 = system: SNB-19
HCT-15 = system: HCT-15
NCI-H460 = system: NCI-H460
MDA-MB-435 = system: MDA-MB-435
HCC 2998 = system: HCC 2998
SK-MEL-2 = system: SK-MEL-2
IGROV-1 = system: IGROV-1
A549 = system: A549
LOX IMVI = system: LOX IMVI
RPMI-8226 = system: RPMI-8226
SK-OV-3 = system: SK-OV-3
HOP-62 = system: HOP-62
Hs-578T = system: Hs-578T
SF-539 = system: SF-539
786-0 = system: 786-0
OVCAR-4 = system: OVCAR-4
MDA-MB-231 = system: MDA-MB-231
NCI/ADR-RES = system: NCI/ADR-RES

Structure (SMILES)	GI50 (OVCAR-5)	GI50 (OVCAR-3)	GI50 (SNB-19)	GI50 (HCT-15) [µM]	GI50 (NCI-H460)	GI50 (MDA-MB-435)	GI50 (HCC 2998)	GI50 (SK-MEL-2)	GI50 (IGROV-1)	GI50 (A549)	GI50 (LOX IMVI)	GI50 (RPMI-8226)	GI50 (SK-OV-3)	GI50 (HOP-62)	GI50 (Hs-578T)	GI50 (SF-539)	GI50 (786-0)	GI50 (OVCAR-4)	GI50 (MDA-MB-231)	GI50 (NCI/ADR-RES)
O=C(c1ccccc1F)c1c(NCc2ccccc2)c(=O)c1=O	> 100 µM (inactive)	> 100 µM (inactive)	> 100 µM (inactive)	> 100	> 100 µM (inactive)	> 100 µM (inactive)	> 100 µM (inactive)	> 100 µM (inactive)	55.7 µM (inactive)	> 100 µM (inactive)	> 100 µM (inactive)	> 100 µM (inactive)	> 100 µM (inactive)	> 100 µM (inactive)	> 100 µM (inactive)	> 100 µM (inactive)	> 100 µM (inactive)	> 100 µM (inactive)	> 100 µM (inactive)	> 100 µM (inactive)
O=C(O)C1CC(c2ccc(F)cc2)=Nc2ccc(F)cc2S1 (centres undefined)	> 100 µM (inactive)	> 100 µM (inactive)	> 100 µM (inactive)	> 100	> 100 µM (inactive)	> 100 µM (inactive)	> 100 µM (inactive)	> 100 µM (inactive)	> 100 µM (inactive)	> 100 µM (inactive)	–	> 100 µM (inactive)	> 100 µM (inactive)	–	> 100 µM (inactive)	92.3 µM (inactive)	> 100 µM (inactive)	> 100 µM (inactive)	> 100 µM (inactive)	> 100 µM (inactive)
C[C@]12CC[C@H]3[C@@H](CC=C4C[C@@H](O)CC[C@@]43C)[C@@H]1C/C(=C/c1ccccc1)[C@@H]2O	> 46.7 µM (inactive)	16 µM (inactive)	22.4 µM (inactive)	19.7	20.1 µM (inactive)	> 46 µM (inactive)	17.9 µM (inactive)	20.9 µM (inactive)	11.8 µM (inactive)	> 35.6 µM (inactive)	> 33.6 µM (inactive)	> 32.1 µM (inactive)	37.6 µM (inactive)	19.7 µM (inactive)	43 µM (inactive)	30.7 µM (inactive)	22.1 µM (inactive)	19.2 µM (inactive)	43.1 µM (inactive)	17.7 µM (inactive)
CCC[C@H](C)C[C@H](C)C[C@H](C)/C=C(\C)[C@@H](O)[C@@H](C)C(=O)CC	19.9 µM (inactive)	19.7 µM (inactive)	20.3 µM (inactive)	21	24 µM (inactive)	20.6 µM (inactive)	17 µM (inactive)	24.9 µM (inactive)	19.3 µM (inactive)	19.9 µM (inactive)	20.4 µM (inactive)	23.2 µM (inactive)	36.2 µM (inactive)	20.4 µM (inactive)	25 µM (inactive)	21 µM (inactive)	20.1 µM (inactive)	19.2 µM (inactive)	25.3 µM (inactive)	17 µM (inactive)
Oc1cc(-c2cccc(Cl)c2)nc2cc3c(cc12)OCO3	18.8 µM (inactive)	–	0.726 µM (active)	0.269	0.274 µM (active)	0.0377 µM (active)	1.31 µM (inactive)	0.207 µM (active)	0.151 µM (active)	2.47 µM (inactive)	0.305 µM (active)	0.498 µM (active)	0.326 µM (active)	0.379 µM (active)	0.255 µM (active)	0.257 µM (active)	0.294 µM (active)	> 75 µM (inactive)	2.44 µM (inactive)	0.208 µM (active)
COc1ccc(P2(=S)Oc3ccccc3-c3ccccc3O2)cc1	> 100 µM (inactive)	0.226 µM (active)	0.521 µM (active)	0.48	0.35 µM (active)	0.144 µM (active)	0.443 µM (active)	0.596 µM (active)	0.394 µM (active)	0.449 µM (active)	0.661 µM (active)	–	–	0.44 µM (active)	0.466 µM (active)	0.266 µM (active)	0.531 µM (active)	4.25 µM (inactive)	0.439 µM (active)	0.902 µM (active)
CCN(CC)CC(C)(C)C(=O)/C=C/c1ccc(/C=C/C(=O)C(C)(C)CN(CC)CC)cc1	1.54 µM (inactive)	0.533 µM (active)	1.53 µM (inactive)	0.325	0.427 µM (active)	0.897 µM (active)	0.333 µM (active)	1.72 µM (inactive)	1.27 µM (inactive)	1.97 µM (inactive)	0.263 µM (active)	0.157 µM (active)	2.09 µM (inactive)	1.95 µM (inactive)	0.462 µM (active)	1.2 µM (inactive)	0.182 µM (active)	–	0.206 µM (active)	1.09 µM (active)
